# Laboratory results as given in patent publication US7282342B2, “Methods for detecting weakly immunogenic analytes” (Neuren Pharmaceuticals Ltd., priority 2001, dated 2007).
# Residues, ends and D or L forms follow the SMILES beside them.
# System: CK5 antibody
# Assay: modified double antibody radioimmunoassay, displacement of I125-labeled Bolton and Hunter derivatized GPE
# Format: binding, rabbit
# Details: test substances Bolton and Hunter derivatized; CK5 at 1:18,000
row,cross-reactivity with CK5 antibody,Compound
1,does not cross-react significantly,"NCC(=O)N1CCC[C@H]1C(=O)O [GP, glycyl-L-proline] (H-Gly-Pro-OH)"
2,does not cross-react significantly,"O=C(O)CC[C@H](NC(=O)[C@@H]1CCCN1)C(=O)O [PE, L-prolyl-L-glutamic acid] (H-Pro-Glu-OH)"
3,does not cross-react significantly,N[C@@H](CCC(=O)O)C(=O)O [glutamic acid]
4,does not cross-react significantly,NCC(=O)O [glycine]
5,does not cross-react significantly,O=C(O)[C@@H]1CCCN1 [proline]
6,does not cross-react significantly,"IGF-1: insulin-like growth factor-1, the GPE parent molecule"

row,Compound,cross-reactivity with CK5 antibody
1,NC(N)=O [urea],does not cross-react significantly

# System: CK5 antibody
# Assay: standard double antibody radioimmunoassay, displacement of I125-labeled YGPE
# Format: binding, rabbit
# Details: CK5 diluted 1:600; I125-labeled YGPE tracer
# Procedure: The CK5 antibody was characterized using a standard double antibody radioimmunoassay technique. Tubes containing either 100 μL 0.02 M phosphate buffered saline assay buffer or peptide (GPE, YGPE (SEQ ID NO:4), KYFGGPE (SEQ ID NO:5), or IGF-1) dissolved in assay buffer at various concentrations were preincubated with CK5 antibody (diluted at 1:600) for 24 h at 4° C. I^125-labeled YGPE (10,000 cpm) was then added to the tubes. After a further 48 h incubation at 4° C., the bound and free GPE were separated by adding donkey anti-rabbit serum (1:100). The tubes were incubated with this second antibody overnight at 4° C. before centrifugation (3,200 rpm for 30 min), after which the supernatant was aspirated, and the precipitate counted in a gamma counter. One antibody, CK5, was identified. […] Unlabeled GPE was able to displace I^125-labeled YGPE with an ED50 of approximately 200 ng/tube.
row,cross-reactivity with CK5 antibody,Compound
1,does not cross-react significantly,"IGF-1: insulin-like growth factor-1, the GPE parent molecule"
